Test results taken from patent publication US11053204B2, “Pyrimidinyloxy benzene derivatives as herbicides” (FMC Corporation, priority 2015, dated 2021).

How the values were obtained:
Assay type in all cases: in vivo
[1] = tested on: barnyardgrass (Echinochloa crus-galli); assay: Test B flooded paddy test, plant response rating; settings: 250 g ai/ha; Flood; scale of 0 to 100 where 0 is no effect and 100 is complete control; 13 to 15 days
Method in brief: (§1)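 Flooded 3 cm over soil; compound into paddy water; depth kept constant. Greenhouse 13–15 d.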

rice (Oryza sativa) = assay: Test B flooded paddy test, plant response rating; settings: 250 g ai/ha; Flood; scale of 0 to 100 where 0 is no effect and 100 is complete control; 13 to 15 days
Method in brief: as §1

[2] = tested on: ducksalad (Heteranthera limosa); assay: Test B flooded paddy test, plant response rating; settings: 250 g ai/ha; Flood; scale of 0 to 100 where 0 is no effect and 100 is complete control; 13 to 15 days
Method in brief: as §1

[3] = tested on: sedge, umbrella (small-flower umbrella sedge, Cyperus difformis); assay: Test B flooded paddy test, plant response rating; settings: 250 g ai/ha; Flood; scale of 0 to 100 where 0 is no effect and 100 is complete control; 13 to 15 days
Method in brief: as §1

[4] = tested on: barnyardgrass (Echinochloa crus-galli); assay: Test C preemergence, plant response rating; settings: Preemergence
[5] = tested on: ragweed (common ragweed, Ambrosia elatior); assay: Test A postemergence, visual injury rating
Method in brief: (§2)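 Compounds in non-phytotoxic solvent with surfactant applied as soil spray preemergence, or postemergence to plants 2-10 cm at one- to two-leaf stage, in loam/sand. After approximately 10 days in greenhouse, injury rated visually versus untreated controls, 0 (no effect) to 100 (complete control).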

corn (Zea mays) = assay: Test A postemergence, visual injury rating
Method in brief: as §2

[6] = tested on: barnyardgrass (Echinochloa crus-galli); assay: Test A postemergence, visual injury rating; settings: 0 is no effect, 100 is complete control; for Barnyardgrass plant response rating: 0 to 100 scale, approximately 10 days
Method in brief: as §2

kochia (Kochia scoparia) = assay: Test A postemergence, visual injury rating
Method in brief: as §2

[7] = tested on: pigweed (Amaranthus retroflexus); assay: Test A postemergence, visual injury rating
Method in brief: as §2

[8] = tested on: galium (catchweed bedstraw, Galium aparine); assay: Test A postemergence, visual injury rating
Method in brief: as §2

[9] = tested on: Italian ryegrass (Lolium multiflorum); assay: Test A postemergence, visual injury rating
Method in brief: as §2

[10] = tested on: giant foxtail (Setaria faberii); assay: Test A postemergence, visual injury rating
Method in brief: as §2

[11] = tested on: blackgrass (Alopecurus myosuroides); assay: Test A postemergence, visual injury rating
Method in brief: as §2

[12] = tested on: wheat (Triticum aestivum); assay: Test A postemergence, visual injury rating
Method in brief: as §2

[13] = tested on: ragweed (common ragweed, Ambrosia elatior); assay: Test C postemergence, plant response rating; settings: for Ragweed plant response rating: scale 0 to 100 (0 no effect, 100 complete control)
Method in brief: (§3)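 Greenhouse plants rated visually against untreated controls 13–15 d after treatment, scale 0 = no effect to 100 = complete control. Postemergence sprays went onto potted plants 2–18 cm tall (1–4 leaves); preemergence sprays onto soil freshly sown in loam–sand or silt loam, chemicals formulated in non-phytotoxic solvent with surfactant.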

[14] = tested on: galium (catchweed bedstraw, Galium aparine); assay: Test C postemergence, plant response rating; settings: for Galium plant response rating: scale 0 to 100 (0 no effect, 100 complete control)
Method in brief: as §3

[15] = tested on: velvetleaf (Abutilon theophrasti); assay: Test C postemergence, plant response rating
Method in brief: as §3

[16] = tested on: waterhemp (common waterhemp, Amaranthus rudis); assay: Test C postemergence, plant response rating
Method in brief: as §3

[17] = 125 g ai/ha, 0 is no effect, 100 is complete control
[18] = 500 g ai/ha, 0 is no effect, 100 is complete control
[19] = 31 g ai/ha, 0 to 100 scale (0 no effect, 100 complete control)
[20] = 125 g ai/ha, 0 to 100 scale, 0 is no effect, 100 is complete control, approximately 10 days
[21] = 125 g ai/ha, scale 0 to 100 (0 no effect, 100 complete control)

With `N#Cc1cccc(Oc2ncc(Cl)cn2)c1C(=O)OCCC(F)(F)F` [Compound 30] the “Plant response rating, Barnyardgrass” value [1] was 0, the “Plant response rating, Rice” value (rice (Oryza sativa)) was 0 and the “Plant response rating, Ducksalad” value [2] was 40. For the same compound, the “Plant response rating, Sedge, Umbrella” value [3] was 0, the “Plant response rating, Barnyardgrass” value ([4]; 62 g ai/ha, scale of 0 to 100) was 10 and the “Plant response rating, Barnyardgrass” value ([4]; 125 g ai/ha, scale of 0 to 100) was 25. The “Plant response rating, Barnyardgrass” value ([4]; 16 g ai/ha, scale 0 to 100) was 10, the “Plant response rating, Barnyardgrass” value ([4]; 31 g ai/ha, scale 0 to 100) was 15 and the “Ragweed plant response rating (0 to 100 scale)” value [5, 17] was 0. For the same compound, the “Ragweed plant response rating (0 to 100 scale)” value [5, 18] was 0, the “Corn plant response rating (0 to 100 scale)” value (corn (Zea mays); [17]) was 30 and the “Corn plant response rating (0 to 100 scale)” value (corn (Zea mays); [18]) was 70. For the same compound, the “Barnyardgrass plant response rating (0 to 100 scale)” value ([6]; 125 g ai/ha) was 0, the “Barnyardgrass plant response rating (0 to 100 scale)” value ([6]; 500 g ai/ha) was 20 and the “Kochia plant response rating (0 to 100 scale)” value (kochia (Kochia scoparia); [17]) was 100. The “Kochia plant response rating (0 to 100 scale)” value (kochia (Kochia scoparia); [18]) was 100, the “Pigweed plant response rating (0 to 100 scale)” value [7, 17] was 100 and the “Pigweed plant response rating (0 to 100 scale)” value [7, 18] was 100. For the same compound, the “Galium plant response rating (0 to 100 scale)” value [8, 17] was 60, the “Galium plant response rating (0 to 100 scale)” value [8, 18] was 100 and the “Ryegrass, Italian plant response rating (0 to 100 scale)” value (“Ryegrass … (0 to 100 scale)” below) [9, 17] was 0. The “Ryegrass … (0 to 100 scale)” value [9, 18] was 0, the “Foxtail, Giant plant response rating (0 to 100 scale)” value (shortened to “Foxtail … (0 to 100 scale)”) [10, 17] was 60 and the “Foxtail … (0 to 100 scale)” value [10, 18] was 100. The “Blackgrass plant response rating (0 to 100 scale)” value [11, 17] was 10, the “Blackgrass plant response rating (0 to 100 scale)” value [11, 18] was 30 and the “Wheat plant response rating (0 to 100 scale)” value [12, 17] was 0. For the same compound, the “Wheat plant response rating (0 to 100 scale)” value [12, 18] was 30.

With `C=C(Br)COC(=O)c1c(Br)cccc1Oc1ncc(Cl)cn1` [Compound 61] the “Plant response rating, Barnyardgrass” value [1] was 20, the “Plant response rating, Rice” value (rice (Oryza sativa)) was 0 and the “Plant response rating, Ducksalad” value [2] was 100. The “Plant response rating, Sedge, Umbrella” value [3] was 100, the “Plant response rating, Barnyardgrass” value ([4]; 62 g ai/ha, scale of 0 to 100) was 50 and the “Plant response rating, Barnyardgrass” value ([4]; 125 g ai/ha, scale of 0 to 100) was 65. The “Plant response rating, Barnyardgrass” value ([4]; 16 g ai/ha, scale 0 to 100) was 0, the “Plant response rating, Barnyardgrass” value ([4]; 31 g ai/ha, scale 0 to 100) was 0 and the “Ragweed plant response rating (0 to 100 scale)” value [5, 17] was 10. For the same compound, the “Ragweed plant response rating (0 to 100 scale)” value [5, 18] was 30, the “Corn plant response rating (0 to 100 scale)” value (corn (Zea mays); [17]) was 20 and the “Corn plant response rating (0 to 100 scale)” value (corn (Zea mays); [18]) was 40. The “Barnyardgrass plant response rating (0 to 100 scale)” value ([6]; 125 g ai/ha) was 100, the “Barnyardgrass plant response rating (0 to 100 scale)” value ([6]; 500 g ai/ha) was 100 and the “Pigweed plant response rating (0 to 100 scale)” value [7, 17] was 40. The “Pigweed plant response rating (0 to 100 scale)” value [7, 18] was 100, the “Galium plant response rating (0 to 100 scale)” value [8, 17] was 60 and the “Galium plant response rating (0 to 100 scale)” value [8, 18] was 100. For the same compound, the “Ryegrass … (0 to 100 scale)” value [9, 17] was 20, the “Ryegrass … (0 to 100 scale)” value [9, 18] was 80 and the “Foxtail … (0 to 100 scale)” value [10, 17] was 60. The “Foxtail … (0 to 100 scale)” value [10, 18] was 100, the “Blackgrass plant response rating (0 to 100 scale)” value [11, 17] was 30 and the “Blackgrass plant response rating (0 to 100 scale)” value [11, 18] was 100. For the same compound, the “Wheat plant response rating (0 to 100 scale)” value [12, 17] was 0 and the “Wheat plant response rating (0 to 100 scale)” value [12, 18] was 30.

For `O=C(CCCC(F)(F)F)c1c(Cl)cccc1Oc1ncc(Cl)cn1` [Compound 143], the “Plant response rating, Barnyardgrass” value [1] was 50, the “Plant response rating, Rice” value (rice (Oryza sativa)) was 40 and the “Plant response rating, Ducksalad” value [2] was 90. For the same compound, the “Plant response rating, Sedge, Umbrella” value [3] was 90, the “Ragweed plant response rating” value [5, 19] was 20 and the “Ragweed plant response rating” value [5, 20] was 50. For the same compound, the “Corn plant response rating” value (corn (Zea mays); [19]) was 10, the “Corn plant response rating” value (corn (Zea mays); [20]) was 30 and the “Barnyardgrass plant response rating” value ([6]; 31 g ai/ha) was 20. The “Barnyardgrass plant response rating” value ([6]; 125 g ai/ha) was 70, the “Kochia plant response rating” value (kochia (Kochia scoparia); [19]) was 90 and the “Kochia plant response rating” value (kochia (Kochia scoparia); [20]) was 100. For the same compound, the “Pigweed plant response rating” value [7, 19] was 100, the “Pigweed plant response rating” value [7, 20] was 100 and the “Galium plant response rating” value [8, 19] was 90. The “Galium plant response rating” value [8, 20] was 100, the “Ryegrass, Italian plant response rating” value [9, 19] was 20 and the “Ryegrass, Italian plant response rating” value [9, 20] was 80. For the same compound, the “Foxtail, Giant plant response rating” value [10, 19] was 30, the “Foxtail, Giant plant response rating” value [10, 20] was 70 and the “Blackgrass plant response rating” value [11, 19] was 30. For the same compound, the “Blackgrass plant response rating” value [11, 20] was 80, the “Wheat plant response rating” value [12, 19] was 10 and the “Wheat plant response rating” value [12, 20] was 20. For the same compound, the “Plant response rating, Ragweed” value ([13]; 16 g ai/ha, scale of 0 to 100) was 20, the “Plant response rating, Ragweed” value ([13]; 31 g ai/ha, scale 0 to 100) was 50 and the “Ragweed plant response rating” value ([13]; 62 g ai/ha) was 55. For the same compound, the “Ragweed plant response rating” value ([13]; 125 g ai/ha) was 55, the “Plant response rating, Galium” value ([14]; 16 g ai/ha, scale of 0 to 100) was 75 and the “Plant response rating, Galium” value ([14]; 31 g ai/ha, scale 0 to 100) was 85. The “Galium plant response rating” value ([14]; 62 g ai/ha) was 80, the “Galium plant response rating” value ([14]; 125 g ai/ha) was 95 and the “Plant response rating, Velvetleaf” value ([15]; 16 g ai/ha, scale of 0 to 100) was 35. The “Plant response rating, Velvetleaf” value ([15]; 31 g ai/ha, scale 0 to 100) was 55, the “Velvetleaf plant response rating” value [15, 21] was 70 and the “Plant response rating, Waterhemp” value ([16]; 16 g ai/ha, scale of 0 to 100) was 75. For the same compound, the “Plant response rating, Waterhemp” value ([16]; 31 g ai/ha, scale 0 to 100) was 80 and the “Waterhemp plant response rating” value [16, 21] was 90.
